PubChem BioAssay (NCI)
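A five-concentration, 48-hour dose response in 96-well plates underlies each endpoint, interpolated linearly between surrounding concentrations. At the TGI there is no net growth.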

Tests used:
Assay in all cases: inhibition of tumour cell growth, NCI panel, 48 h
MCF7 breast = test system: MCF7 breast
NCI-H23 lung = test system: NCI-H23 lung
SNB-75 CNS = test system: SNB-75 CNS
UACC-257 melanoma = test system: UACC-257 melanoma
RPMI-8226 leukemia = test system: RPMI-8226 leukemia
BT-549 breast = test system: BT-549 breast
COLO 205 colon = test system: COLO 205 colon
HCC-2998 colon = test system: HCC-2998 colon
HOP-62 NSCLC = test system: HOP-62 NSCLC
SR leukemia = test system: SR leukemia
CCRF-CEM leukemia = test system: CCRF-CEM leukemia
PC-3 prostate = test system: PC-3 prostate
SW-620 colon = test system: SW-620 colon
DU-145 prostate = test system: DU-145 prostate
SN12C renal = test system: SN12C renal
K-562 leukemia = test system: K-562 leukemia
EKVX NSCLC = test system: EKVX NSCLC
A549 NSCLC = test system: A549 NSCLC
U251 CNS = test system: U251 CNS
M14 melanoma = test system: M14 melanoma
T-47D breast = test system: T-47D breast
NCI-H460 lung = test system: NCI-H460 lung
SF-268 CNS = test system: SF-268 CNS
MDA-MB-435 = test system: MDA-MB-435
OVCAR-4 ovarian = test system: OVCAR-4 ovarian
TK-10 renal = test system: TK-10 renal
MDA-N = test system: MDA-N
MOLT-4 leukemia = test system: MOLT-4 leukemia
A498 renal = test system: A498 renal
MALME-3M melanoma = test system: MALME-3M melanoma
NCI-H226 lung = test system: NCI-H226 lung
OVCAR-3 ovarian = test system: OVCAR-3 ovarian
OVCAR-8 ovarian = test system: OVCAR-8 ovarian
SK-MEL-5 melanoma = test system: SK-MEL-5 melanoma
HT29 colon = test system: HT29 colon
OVCAR-5 ovarian = test system: OVCAR-5 ovarian
HOP-92 NSCLC = test system: HOP-92 NSCLC
KM12 colon = test system: KM12 colon
NCI-H522 lung = test system: NCI-H522 lung
HL-60(TB) leukemia = test system: HL-60(TB) leukemia
SF-539 CNS = test system: SF-539 CNS
RXF 393 renal = test system: RXF 393 renal
UO-31 renal = test system: UO-31 renal
MDA-MB-231 breast = test system: MDA-MB-231 breast
ACHN renal = test system: ACHN renal
SF-295 CNS = test system: SF-295 CNS
SK-OV-3 ovarian = test system: SK-OV-3 ovarian
LOX IMVI melanoma = test system: LOX IMVI melanoma
NCI/ADR-RES ovarian = test system: NCI/ADR-RES ovarian
HCT-15 colon = test system: HCT-15 colon
HS 578T breast = test system: HS 578T breast
786-0 renal = test system: 786-0 renal
IGROV1 ovarian = test system: IGROV1 ovarian
HCT-116 colon = test system: HCT-116 colon
SK-MEL-28 melanoma = test system: SK-MEL-28 melanoma
CAKI-1 renal = test system: CAKI-1 renal
SK-MEL-2 melanoma = test system: SK-MEL-2 melanoma
UACC-62 melanoma = test system: UACC-62 melanoma
SNB-19 CNS = test system: SNB-19 CNS

SMILES: COc1cccc(N=Cc2cc(OC)c(OC)c(OC)c2)c1
- TGI (MCF7 breast): > 100 µM
- TGI (NCI-H23 lung): > 100 µM
- TGI (SNB-75 CNS): > 100 µM
- TGI (UACC-257 melanoma): > 100 µM
- TGI (RPMI-8226 leukemia): > 100 µM
- TGI (BT-549 breast): > 100 µM
- TGI (COLO 205 colon): > 100 µM
- TGI (HCC-2998 colon): > 100 µM
- TGI (HOP-62 NSCLC): > 100 µM
- TGI (SR leukemia): > 100 µM
- TGI (CCRF-CEM leukemia): > 100 µM
- TGI (PC-3 prostate): > 100 µM
- TGI (SW-620 colon): > 100 µM
- TGI (DU-145 prostate): > 100 µM
- TGI (SN12C renal): > 100 µM
- TGI (K-562 leukemia): > 100 µM
- TGI (EKVX NSCLC): > 100 µM
- TGI (A549 NSCLC): > 100 µM
- TGI (U251 CNS): > 100 µM
- TGI (M14 melanoma): > 100 µM
- TGI (T-47D breast): > 100 µM
- TGI (NCI-H460 lung): > 100 µM
- TGI (SF-268 CNS): > 100 µM
- TGI (MDA-MB-435): > 100 µM
- TGI (OVCAR-4 ovarian): > 100 µM
- TGI (TK-10 renal): > 100 µM
- TGI (MDA-N): > 100 µM
- TGI (MOLT-4 leukemia): > 100 µM
- TGI (A498 renal): > 100 µM
- TGI (MALME-3M melanoma): > 100 µM
- TGI (NCI-H226 lung): > 100 µM
- TGI (OVCAR-3 ovarian): > 100 µM
- TGI (OVCAR-8 ovarian): > 100 µM
- TGI (SK-MEL-5 melanoma): > 100 µM
- TGI (HT29 colon): > 100 µM
- TGI (OVCAR-5 ovarian): > 100 µM
- TGI (HOP-92 NSCLC): > 100 µM
- TGI (KM12 colon): > 100 µM
- TGI (NCI-H522 lung): > 100 µM
- TGI (HL-60(TB) leukemia): > 100 µM
- TGI (SF-539 CNS): > 100 µM
- TGI (RXF 393 renal): > 100 µM
- TGI (UO-31 renal): > 100 µM
- TGI (MDA-MB-231 breast): > 100 µM
- TGI (ACHN renal): > 100 µM
- TGI (SF-295 CNS): > 100 µM
- TGI (SK-OV-3 ovarian): > 100 µM
- TGI (LOX IMVI melanoma): > 100 µM
- TGI (NCI/ADR-RES ovarian): > 100 µM
- TGI (HCT-15 colon): > 100 µM
- TGI (HS 578T breast): > 100 µM
- TGI (786-0 renal): > 100 µM
- TGI (IGROV1 ovarian): > 100 µM
- TGI (HCT-116 colon): > 100 µM
- TGI (SK-MEL-28 melanoma): > 100 µM
- TGI (CAKI-1 renal): > 100 µM
- TGI (SK-MEL-2 melanoma): > 100 µM

SMILES: Cc1cc(Cc2cc(Cc3cc(C)cc(C(C)(C)C)c3O)c(C)cc2C)c(O)c(C(C)(C)C)c1
- TGI (MCF7 breast): 27.2 µM
- TGI (NCI-H23 lung): 37.9 µM
- TGI (SNB-75 CNS): 23.9 µM
- TGI (UACC-257 melanoma): 34.8 µM
- TGI (RPMI-8226 leukemia): 65 µM
- TGI (BT-549 breast): 40.6 µM
- TGI (COLO 205 colon): 36.7 µM
- TGI (HCC-2998 colon): 27.1 µM
- TGI (HOP-62 NSCLC): 36.2 µM
- TGI (SR leukemia): 70.6 µM
- TGI (CCRF-CEM leukemia): 48.3 µM
- TGI (PC-3 prostate): > 100 µM
- TGI (SW-620 colon): 40.8 µM
- TGI (DU-145 prostate): 27.6 µM
- TGI (SN12C renal): 31.7 µM
- TGI (K-562 leukemia): 45 µM
- TGI (EKVX NSCLC): 34.5 µM
- TGI (A549 NSCLC): 30.8 µM
- TGI (U251 CNS): > 100 µM
- TGI (M14 melanoma): 33.8 µM
- TGI (T-47D breast): 34.8 µM
- TGI (SF-268 CNS): 35.4 µM
- TGI (MDA-MB-435): 26.2 µM
- TGI (OVCAR-4 ovarian): 25.4 µM
- TGI (TK-10 renal): 55.1 µM
- TGI (MDA-N): 35 µM
- TGI (MOLT-4 leukemia): > 100 µM
- TGI (A498 renal): 30.6 µM
- TGI (MALME-3M melanoma): 31.7 µM
- TGI (NCI-H226 lung): 31.5 µM
- TGI (OVCAR-3 ovarian): 32.9 µM
- TGI (OVCAR-8 ovarian): 75.4 µM
- TGI (SK-MEL-5 melanoma): 30.2 µM
- TGI (HT29 colon): 34.7 µM
- TGI (OVCAR-5 ovarian): 42.9 µM
- TGI (HOP-92 NSCLC): 29.2 µM
- TGI (KM12 colon): 34.7 µM
- TGI (NCI-H522 lung): 34 µM
- TGI (HL-60(TB) leukemia): 46.9 µM
- TGI (RXF 393 renal): 24.8 µM
- TGI (UO-31 renal): 32 µM
- TGI (UACC-62 melanoma): 28.1 µM
- TGI (MDA-MB-231 breast): > 100 µM
- TGI (ACHN renal): 30.3 µM
- TGI (SF-295 CNS): 39.4 µM
- TGI (SK-OV-3 ovarian): 35.6 µM
- TGI (LOX IMVI melanoma): 41.9 µM
- TGI (NCI/ADR-RES ovarian): 42.4 µM
- TGI (HCT-15 colon): 42 µM
- TGI (HS 578T breast): 52 µM
- TGI (786-0 renal): 31.6 µM
- TGI (IGROV1 ovarian): 40.5 µM
- TGI (HCT-116 colon): 30 µM
- TGI (SK-MEL-28 melanoma): 37 µM
- TGI (CAKI-1 renal): 42.9 µM
- TGI (SNB-19 CNS): 31.9 µM
- TGI (SK-MEL-2 melanoma): > 100 µM
